From US8853258B2, “C-linked hydroxamic acid derivatives useful as antibacterial agents” (Pfizer Inc., priority 2009, dated 2014)
pIC50: −log10 of the molar value. Converted amounts (≈) assume the structure as drawn. Where two headings read alike, the source gives them in different places.

Assays:
[1] = system: Escherichia coli EC-1: VOGEL, mouse virulent; assay: MIC determination (CLSI), EC-1; format: cell-based; conditions: for MIC: Escherichia coli, read-out: EC-1: (MIC); for EC-1 MIC: Escherichia coli EC-1 VOGEL, mouse virulent
Method in brief: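 E. coli Vogel, a mouse-virulent strain (EC-1), was tested. MICs were set by dilution susceptibility testing per CLSI standards M7-A7/M100-S18.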

[2] = system: Acinetobacter baumanii/haemolyticus: Multidrug-resistant clinical isolate (AB-3167); assay: MIC determination (CLSI), AB-3167; format: cell-based; conditions: for MIC: Acinetobacter baumannii, read-out: AB-3167 (MIC); for AB-3167 MIC: Acinetobacter baumanii/haemolyticus multidrug-resistant clinical isolate AB-3167
Method in brief: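 Multidrug-resistant clinical isolate AB-3167 (A. baumannii/haemolyticus) tested for minimum inhibitory concentration following CLSI dilution susceptibility standards M7-A7 and M100-S18.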

[3] = system: Pseudomonas aeruginosa UI-18: Wild-type (PA-7); assay: MIC determination (CLSI), PA-7; format: cell-based; conditions: for MIC: Pseudomonas aeruginosa, read-out: PA-7 (MIC); for PA-7 MIC: Pseudomonas aeruginosa UI-18 wild-type PA-7
Method in brief: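 Wild-type P. aeruginosa UI-18 tested for minimum inhibitory concentration. Broth/agar dilution following CLSI standards (M7-A7, M100-S18).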

[4] = target: Pseudomonas aeruginosa LpxC enzyme (Pseudomonas aeruginosa (strain ATCC 15692 / DSM 22644 / CIP 104116 / JCM 14847 / LMG 12228 / 1C / PRS 101 / PAO1), UniProt P47205); assay: IC50 Assay, LpxC Enzyme from P. aeruginosa (PA LpxC Enzyme IC50); format: biochemical
Experimental: In order to assess the compounds biological activity, selected in-vitro assays were conducted on selected compounds. One of the assays measured the compounds ability to disrupt the synthesis of lipopolysaccharide, LPS, which is a component of the outer membrane of Gram-negative bacteria. Disruption of this synthesis is lethal to the bacteria. The assay determined the compound's ability to inhibit LpxC, which is the first enzyme in the biosynthetic pathway for LPS (measured as IC50). Additionally, MICs (minimal inhibitory concentrations) were determined for several bacteria. The specific protocols are described below:
A) IC50 Assay, LpxC Enzyme from P. aeruginosa (Labled as PA LpxC Enzyme IC50
At the end of 1 hour, 5 ul of 1N HCl was added to stop the enzyme reaction; the plates were centrifuged, and then processed with the BioTrove Rapidfire HTMS Mass Spectrometry System. A no-enzyme control was used in calculating the IC50 values from the percent conversion values.

[5] = system: Klebsiella pneumoniae: Ciprofloxacin-resistant isolate, ESBL, clinical isolate (KP-3700); assay: MIC determination (CLSI), KP-3700; format: cell-based
Method in brief: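 Strain KP-3700, a clinical isolate producing extended-spectrum β-lactamases and resistant to ciprofloxacin, was tested. Minimum inhibitory concentrations determined via CLSI dilution methodology (M7-A7; M100-S18).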

[6] = Table 1, read-out: PA LpxC enzyeme IC50
[7] = P. aeruginosa LpxC enzyme, read-out: PA LpxC enzyeme IC50

SMILES	MIC [1] [µg/mL]	MIC ([2]; Table 1, MIC) [µg/mL]	MIC ([3]; Table 1, MIC) [µg/mL]	pIC50 ([4]; PA LpxC enzyeme IC50, Table 1)	KP-3700 MIC [5]	pIC50 [4, 6]	MIC [2] [µg/mL]	MIC [3] [µg/mL]	KP-3700 MIC ([5]; Table 1, MIC)	EC-1 MIC [1] [µg/mL]	AB-3167 MIC [2]	PA-7 MIC [3] [µg/mL]	pIC50 [4, 7]
CC(CCc1ccc(OCc2ccccn2)cc1)(C(=O)NO)S(C)(=O)=O (racemic) [Example 16, (+/−)-N-Hydroxy-2-methyl-2-(methylsulfonyl)-4-[4-(pyridin-2-ylmethoxy)phenyl]butanamide]	≥ 64	≥ 64	16 (≈ 42.3 µM)	8.30	≧64 mg/L	–	–	–	–	–	–	–	–
CC(CCc1ccc(-c2ccc(F)cc2)cc1O)(C(=O)NO)S(C)(=O)=O (racemic) [Example 19, (+/−)-4-(4′-Fluoro-3-hydroxybiphenyl-4-yl)-N-hydroxy-2-methyl-2-(methylsulfonyl)butanamide]	8 (≈ 21 µM)	≥ 64	16 (≈ 41.9 µM)	8.46	32 µg/mL	–	–	–	–	–	–	–	–
Cc1cc(-c2ccccc2)ccc1CCC(C)(C(=O)NO)S(C)(=O)=O (centres unmarked) [Example 1, N-Hydroxy-2-methyl-4-(3-methylbiphenyl-4-yl)-2(methylsulfonyl)butanamide]	2 (≈ 5.53 µM)	16 (≈ 44.3 µM)	4 (≈ 11.1 µM)	–	8 µg/mL	8.77	–	–	–	–	–	–	–
CC(CCc1ccc(-c2ccccc2)cc1F)(C(=O)NO)S(C)(=O)=O (centres unmarked) [Example 2, 4-(3-Fluorobiphenyl-4-yl)-N-hydroxy-2-methyl-2-(methylsulfonyl)butanamide]	1 (≈ 2.74 µM)	16 (≈ 43.8 µM)	1 (≈ 2.74 µM)	–	4 µg/mL	9.59	–	–	–	–	–	–	–
C[C@@](CCc1ccc(-c2ccc(OP(=O)(O)O)cc2)cc1)(C(=O)NO)S(C)(=O)=O [Example 6, 4′-[(3R)-4-(Hydroxyamino)-3-methyl-3-(methylsulfonyl)-4-oxobutyl]biphenyl-4-yl dihydrogen phosphate]	≥ 64	–	–	–	–	7.06	≥ 64	≥ 64	≧64 mg/L	–	–	–	–
CC(CCc1ccc(-c2ccc(-c3cc(CO)no3)cc2)cc1)(C(=O)NO)S(C)(=O)=O (centres unmarked) [Example 9, N-Hydroxy-4-{4′-[3-(hydroxymethyl)isoxazol-5-yl]biphenyl-4-yl}-2-methyl-2-(methylsulfonyl)butanamide]	0.125 (≈ 0.281 µM)	32 (≈ 72 µM)	2 (≈ 4.5 µM)	–	4 µg/mL	9.49	–	–	–	–	–	–	–
CC(CCc1ccc(Sc2ccccc2)cc1)(C(=O)NO)S(C)(=O)=O (centres unmarked) [Example 12, N-Hydroxy-2-methyl-2-(methylsulfonyl)-4-[4-(phenylthio)phenyl]butanamide]	8 (≈ 21.1 µM)	8 (≈ 21.1 µM)	8 (≈ 21.1 µM)	–	32 µg/mL	7.92	–	–	–	–	–	–	–
CC(CCc1ccc(C2=CCCCCC2)cc1)(C(=O)NO)S(C)(=O)=O (centres unmarked) [Example 13, 4-(4-Cyclohept-1-en-1-ylphenyl)-N-hydroxy-2-methyl-2-(methylsulfonyl)butanamide]	2 (≈ 5.47 µM)	0.5 (≈ 1.37 µM)	1 (≈ 2.74 µM)	–	4 µg/mL	9.54	–	–	–	–	–	–	–
CC(=O)NC[C@@H]1CN(c2ccc(-c3ccc(CC[C@](C)(C(=O)NO)S(C)(=O)=O)cc3)c(F)c2)C(=O)O1 [Example 14, (2R)-4-{4′-[(5R)-5-(Acetamidomethyl)-2-oxo-1,3-oxazolidin-3-yl]-2′-fluorobiphenyl-4-yl}-N-hydroxy-2-methyl-2-(methylsulfonyl)butanamide]	16 (≈ 30.7 µM)	≥ 64	32 (≈ 61.4 µM)	–	≧64 mg/L	8.83	–	–	–	–	–	–	–
CC(CCc1ccc(-c2ccc(F)cc2)c(O)c1)(C(=O)NO)S(C)(=O)=O (centres unmarked) [Example 21, 4-(4′-Fluoro-2-hydroxybiphenyl-4-yl)-N-hydroxy-2-methyl-2-(methylsulfonyl)butanamide]	16 (≈ 41.9 µM)	≥ 64	16 (≈ 41.9 µM)	–	≧64 mg/L	7.81	–	–	–	–	–	–	–
C[C@@](CCc1ccc(-c2ccc(O)cc2)cc1)(C(=O)NO)S(C)(=O)=O [Example 23, (2R)—N-hydroxy-4-(4′-hydroxybiphenyl-4-yl)-2-methyl-2-(methylsulfonyl)butanamide]	4 (≈ 11 µM)	≥ 64	2 (≈ 5.5 µM)	–	8 µg/mL	9.74	–	–	–	–	–	–	–
CC(CCc1ccc(COc2ccccc2)cc1)(C(=O)NO)S(C)(=O)=O (centres unmarked) [Example 25, N-Hydroxy-2-methyl-2-(methylsulfonyl)-4-[4-(phenoxymethyl)phenyl]butanamide]	4 (≈ 10.6 µM)	16 (≈ 42.4 µM)	8 (≈ 21.2 µM)	–	16 µg/mL	8.62	–	–	–	–	–	–	–
CC(CCc1ccc(-c2ccc(CCO)cc2)cc1)(C(=O)NO)S(C)(=O)=O (centres unmarked) [Example 34]	–	–	–	–	8 µg/mL	–	–	–	–	4	≧64 mg/L	4	9.48
CC(CCc1ccc(-c2cc(F)ccc2F)cc1)(C(=O)NO)S(C)(=O)=O (centres unmarked) [Example 38]	–	–	–	–	32 µg/mL	–	–	–	–	2	16 µg/mL	1	9.12
CC(CCc1ccc(-c2cccc(F)c2)cc1)(C(=O)NO)S(C)(=O)=O (centres unmarked) [Example 42]	–	–	–	–	4 µg/mL	–	–	–	–	2	≧64 mg/L	0.5	9.47
CC(CCc1ccc(-c2ccc(Cl)cc2)cc1)(C(=O)NO)S(C)(=O)=O (centres unmarked) [Example 44]	–	–	–	–	1 µg/mL	–	–	–	–	0.5	16 µg/mL	0.5	10.17
CC(CCc1ccc(-c2ccc(CCCO)cc2)cc1)(C(=O)NO)S(C)(=O)=O (centres unmarked) [Example 47]	–	–	–	–	2 µg/mL	–	–	–	–	0.5	≧64 mg/L	1	9.88
CC(CCc1ccc(-c2ccccc2F)cc1)(C(=O)NO)S(C)(=O)=O (centres unmarked) [Example 50]	–	–	–	–	8 µg/mL	–	–	–	–	2	16 µg/mL	0.5	9.14
CSc1cccc(-c2ccc(CCC(C)(C(=O)NO)S(C)(=O)=O)cc2)c1 (centres unmarked) [Example 56]	–	–	–	–	4 µg/mL	–	–	–	–	2	8 µg/mL	2	9.38
CC(CCc1ccc(-c2ccc3[nH]ccc3c2)cc1)(C(=O)NO)S(C)(=O)=O (centres unmarked) [Example 57]	–	–	–	–	8 µg/mL	–	–	–	–	0.5	8 µg/mL	0.5	9.53
CC(CCc1ccc(-c2cccc(Cl)c2Cl)cc1)(C(=O)NO)S(C)(=O)=O (centres unmarked) [Example 59]	–	–	–	–	2 µg/mL	–	–	–	–	0.5	2 µg/mL	2	9.67
CC(CCc1ccc(-c2cccc(F)c2F)cc1)(C(=O)NO)S(C)(=O)=O (centres unmarked) [Example 62]	–	–	–	–	16 µg/mL	–	–	–	–	0.5	16 µg/mL	0.25	9.73
